The values below are quoted from earlier work in paper PMC3918212 (Biopolymers, 2013).

The conditions of this data set: PBS at 37 °C.

For MATLEKLMKAFESLKSF [htt^NT], the “Aggregation behaviour on incubation” value is given as “slow, concentration dependent conversion into an α-helix rich, sedimentable oligomer”.
